Source: the CheMixHub viscosity set
± gives the uncertainty stated by the source.

Assay: xn = mol fraction of the nth substance listed

CCCCCCO + CCCCCC
Conditions | viscosity [mPa·s]
293.15 K, 100 kPa, x1 = 0.0277 | 0.3397 ± 0.0052
293.15 K, 100 kPa, x1 = 0.05 | 0.3453 ± 0.0053
293.15 K, 100 kPa, x1 = 0.1 | 0.3793 ± 0.0055
293.15 K, 100 kPa, x1 = 0.1976 | 0.4607 ± 0.006
293.15 K, 100 kPa, x1 = 0.2999 | 0.5855 ± 0.0069
293.15 K, 100 kPa, x1 = 0.3999 | 0.7701 ± 0.0086
293.15 K, 100 kPa, x1 = 0.5 | 1.068 ± 0.011
293.15 K, 100 kPa, x1 = 0.6002 | 1.481 ± 0.016
293.15 K, 100 kPa, x1 = 0.7 | 1.971 ± 0.021
293.15 K, 100 kPa, x1 = 0.8 | 2.71 ± 0.029
293.15 K, 100 kPa, x1 = 0.9096 | 3.927 ± 0.044
298.15 K, 100 kPa, x1 = 0.0277 | 0.3247 ± 0.0052
298.15 K, 100 kPa, x1 = 0.05 | 0.329 ± 0.0052
298.15 K, 100 kPa, x1 = 0.1 | 0.3597 ± 0.0054
298.15 K, 100 kPa, x1 = 0.1976 | 0.433 ± 0.0058
298.15 K, 100 kPa, x1 = 0.2999 | 0.5506 ± 0.0067
298.15 K, 100 kPa, x1 = 0.3999 | 0.7084 ± 0.0081
298.15 K, 100 kPa, x1 = 0.5 | 0.9696 ± 0.011
298.15 K, 100 kPa, x1 = 0.6002 | 1.328 ± 0.014
298.15 K, 100 kPa, x1 = 0.7 | 1.765 ± 0.019
298.15 K, 100 kPa, x1 = 0.8 | 2.381 ± 0.026
298.15 K, 100 kPa, x1 = 0.9096 | 3.398 ± 0.038
298.15 K, 101.33 kPa, x2 = 0.1327 | 3.088 ± 0.024
298.15 K, 101.33 kPa, x2 = 0.1854 | 2.578 ± 0.02
298.15 K, 101.33 kPa, x2 = 0.2308 | 2.207 ± 0.017
298.15 K, 101.33 kPa, x2 = 0.3137 | 1.632 ± 0.013
298.15 K, 101.33 kPa, x2 = 0.4404 | 1.072 ± 0.009
298.15 K, 101.33 kPa, x2 = 0.4841 | 0.941 ± 0.008
298.15 K, 101.33 kPa, x2 = 0.6117 | 0.648 ± 0.006
298.15 K, 101.33 kPa, x2 = 0.7122 | 0.501 ± 0.005
298.15 K, 101.33 kPa, x2 = 0.8046 | 0.408 ± 0.004
298.15 K, 101.33 kPa, x2 = 0.8997 | 0.338 ± 0.004
298.15 K, 101.33 kPa, x2 = 0.9493 | 0.309 ± 0.003
303 K, 101.33 kPa, x1 = 0.0995 | 0.3348 ± 0.013
303 K, 101.33 kPa, x1 = 0.1996 | 0.4052 ± 0.013
303 K, 101.33 kPa, x1 = 0.2995 | 0.5115 ± 0.015
303 K, 101.33 kPa, x1 = 0.4012 | 0.6522 ± 0.016
303 K, 101.33 kPa, x1 = 0.5004 | 0.8535 ± 0.019
303 K, 101.33 kPa, x1 = 0.6 | 1.167 ± 0.025
303 K, 101.33 kPa, x1 = 0.6983 | 1.608 ± 0.036
303 K, 101.33 kPa, x1 = 0.7965 | 2.139 ± 0.051
303 K, 101.33 kPa, x1 = 0.8984 | 2.867 ± 0.075
303.15 K, 100 kPa, x1 = 0.0277 | 0.3116 ± 0.0051
303.15 K, 100 kPa, x1 = 0.05 | 0.3153 ± 0.0051
303.15 K, 100 kPa, x1 = 0.1 | 0.343 ± 0.0053
303.15 K, 100 kPa, x1 = 0.1976 | 0.4107 ± 0.0057
303.15 K, 100 kPa, x1 = 0.2999 | 0.5173 ± 0.0065
303.15 K, 100 kPa, x1 = 0.3999 | 0.6524 ± 0.0076
303.15 K, 100 kPa, x1 = 0.5 | 0.885 ± 0.0098
303.15 K, 100 kPa, x1 = 0.6002 | 1.194 ± 0.013
303.15 K, 100 kPa, x1 = 0.7 | 1.569 ± 0.017
303.15 K, 100 kPa, x1 = 0.8 | 2.091 ± 0.023
303.15 K, 100 kPa, x1 = 0.9096 | 2.945 ± 0.033
303.15 K, 101.33 kPa, x2 = 0.0954 | 2.883 ± 0.026
303.15 K, 101.33 kPa, x2 = 0.1918 | 2.18 ± 0.02
303.15 K, 101.33 kPa, x2 = 0.2892 | 1.6 ± 0.015
303.15 K, 101.33 kPa, x2 = 0.3876 | 1.19 ± 0.011
303.15 K, 101.33 kPa, x2 = 0.487 | 0.8951 ± 0.0087
303.15 K, 101.33 kPa, x2 = 0.5874 | 0.6793 ± 0.0068
303.15 K, 101.33 kPa, x2 = 0.689 | 0.5301 ± 0.0054
303.15 K, 101.33 kPa, x2 = 0.7915 | 0.4188 ± 0.0045
303.15 K, 101.33 kPa, x2 = 0.8952 | 0.3557 ± 0.0039
308.15 K, 100 kPa, x1 = 0.0277 | 0.2979 ± 0.005
308.15 K, 100 kPa, x1 = 0.05 | 0.3006 ± 0.0051
308.15 K, 100 kPa, x1 = 0.1 | 0.3256 ± 0.0052
308.15 K, 100 kPa, x1 = 0.1976 | 0.3877 ± 0.0056
308.15 K, 100 kPa, x1 = 0.2999 | 0.4855 ± 0.0062
308.15 K, 100 kPa, x1 = 0.3999 | 0.6019 ± 0.0072
308.15 K, 100 kPa, x1 = 0.5 | 0.8102 ± 0.0092
308.15 K, 100 kPa, x1 = 0.6002 | 1.08 ± 0.012
308.15 K, 100 kPa, x1 = 0.7 | 1.406 ± 0.015
308.15 K, 100 kPa, x1 = 0.8 | 1.847 ± 0.021
308.15 K, 100 kPa, x1 = 0.9096 | 2.566 ± 0.029
313 K, 101.33 kPa, x1 = 0.0995 | 0.3081 ± 0.012
313 K, 101.33 kPa, x1 = 0.1996 | 0.3673 ± 0.013
313 K, 101.33 kPa, x1 = 0.2995 | 0.4576 ± 0.014
313 K, 101.33 kPa, x1 = 0.4012 | 0.5618 ± 0.015
313 K, 101.33 kPa, x1 = 0.5004 | 0.725 ± 0.017
313 K, 101.33 kPa, x1 = 0.6 | 0.9609 ± 0.021
313 K, 101.33 kPa, x1 = 0.6983 | 1.287 ± 0.027
313 K, 101.33 kPa, x1 = 0.7965 | 1.673 ± 0.036
313 K, 101.33 kPa, x1 = 0.8984 | 2.185 ± 0.05
313.15 K, 100 kPa, x1 = 0.0277 | 0.2857 ± 0.005
313.15 K, 100 kPa, x1 = 0.05 | 0.2883 ± 0.005
313.15 K, 100 kPa, x1 = 0.1 | 0.3109 ± 0.0051
313.15 K, 100 kPa, x1 = 0.1976 | 0.3694 ± 0.0055
313.15 K, 100 kPa, x1 = 0.2999 | 0.4503 ± 0.006
313.15 K, 100 kPa, x1 = 0.3999 | 0.555 ± 0.0069
313.15 K, 100 kPa, x1 = 0.5 | 0.7462 ± 0.0086
313.15 K, 100 kPa, x1 = 0.6002 | 0.9846 ± 0.011
313.15 K, 100 kPa, x1 = 0.7 | 1.272 ± 0.014
313.15 K, 100 kPa, x1 = 0.8 | 1.644 ± 0.018
313.15 K, 100 kPa, x1 = 0.9096 | 2.251 ± 0.026
313.15 K, 101.33 kPa, x2 = 0.0954 | 2.219 ± 0.02
313.15 K, 101.33 kPa, x2 = 0.1918 | 1.71 ± 0.016
313.15 K, 101.33 kPa, x2 = 0.2892 | 1.295 ± 0.012
313.15 K, 101.33 kPa, x2 = 0.3876 | 0.9896 ± 0.0095
313.15 K, 101.33 kPa, x2 = 0.487 | 0.7581 ± 0.0075
313.15 K, 101.33 kPa, x2 = 0.5874 | 0.5894 ± 0.006
313.15 K, 101.33 kPa, x2 = 0.689 | 0.4749 ± 0.005
313.15 K, 101.33 kPa, x2 = 0.7915 | 0.3791 ± 0.0041
313.15 K, 101.33 kPa, x2 = 0.8952 | 0.3285 ± 0.0037
318.15 K, 100 kPa, x1 = 0.0277 | 0.2746 ± 0.0049
318.15 K, 100 kPa, x1 = 0.05 | 0.2766 ± 0.005
318.15 K, 100 kPa, x1 = 0.1 | 0.297 ± 0.0051
318.15 K, 100 kPa, x1 = 0.1976 | 0.3511 ± 0.0054
318.15 K, 100 kPa, x1 = 0.2999 | 0.4266 ± 0.0059
318.15 K, 100 kPa, x1 = 0.3999 | 0.5178 ± 0.0066
318.15 K, 100 kPa, x1 = 0.5 | 0.6859 ± 0.0081
318.15 K, 100 kPa, x1 = 0.6002 | 0.8985 ± 0.01
318.15 K, 100 kPa, x1 = 0.7 | 1.155 ± 0.013
318.15 K, 100 kPa, x1 = 0.8 | 1.48 ± 0.017
318.15 K, 100 kPa, x1 = 0.9096 | 1.987 ± 0.023
323 K, 101.33 kPa, x1 = 0.0995 | 0.2787 ± 0.012
323 K, 101.33 kPa, x1 = 0.1996 | 0.3303 ± 0.013
323 K, 101.33 kPa, x1 = 0.2995 | 0.4051 ± 0.013
323 K, 101.33 kPa, x1 = 0.4012 | 0.5023 ± 0.014
323 K, 101.33 kPa, x1 = 0.5004 | 0.6113 ± 0.015
323 K, 101.33 kPa, x1 = 0.6 | 0.7992 ± 0.018
323 K, 101.33 kPa, x1 = 0.6983 | 1.049 ± 0.022
323 K, 101.33 kPa, x1 = 0.7965 | 1.34 ± 0.027
323 K, 101.33 kPa, x1 = 0.8984 | 1.721 ± 0.036
323.15 K, 100 kPa, x2 = 0.25 | 1.211 ± 0.069
323.15 K, 101.33 kPa, x2 = 0.0954 | 1.682 ± 0.015
323.15 K, 101.33 kPa, x2 = 0.1918 | 1.32 ± 0.012
323.15 K, 101.33 kPa, x2 = 0.2892 | 1.02 ± 0.01
323.15 K, 101.33 kPa, x2 = 0.3876 | 0.8098 ± 0.0079
323.15 K, 101.33 kPa, x2 = 0.487 | 0.6263 ± 0.0063
323.15 K, 101.33 kPa, x2 = 0.5874 | 0.5103 ± 0.0053
323.15 K, 101.33 kPa, x2 = 0.689 | 0.404 ± 0.0043
323.15 K, 101.33 kPa, x2 = 0.7915 | 0.3396 ± 0.0038
323.15 K, 101.33 kPa, x2 = 0.8952 | 0.2844 ± 0.0033
